Measurements published in ChEMBL document CHEMBL1132978, “Artificial neural network applied to prediction of fluorquinolone antibacterial activity by topological methods” (2000).
Converted amounts (≈) assume the structure as drawn.

Test system: Escherichia coli
Test: Minimum inhibitory concentration against Escherichia coli
Type: functional

| Structure (SMILES) | MIC [µg/mL] |
| --- | --- |
| CCn1cc(C(=O)O)c(=O)c2cc(F)c(N3CCC(N)C3)c(OC)c21 (configuration not stated) | 0.2 (≈ 0.572 µM) |
| CCCCN1CCN(c2cc3c(cc2F)c(=O)c(C(=O)O)cn3-c2ccc(F)cc2F)CC1 | 0.8 (≈ 1.74 µM) |
| NC1CCN(c2nc3c(cc2F)c(=O)c(C(=O)O)cn3-c2ccc(F)cc2F)C1 (configuration not stated) [TOSUFLOXACIN] | 0.025 (≈ 0.0618 µM) |
| CCOc1c(N2CCCC(N)C2)c(F)cc2c(=O)c(C(=O)O)cn(C3CC3)c12 (configuration not stated) | 0.2 (≈ 0.514 µM) |
| CC(C)NCC1CCN(c2cc3c(cc2F)c(=O)c(C(=O)O)cn3C2CC2)C1 (configuration not stated) | 0.4 (≈ 1.03 µM) |
| CNC(C)C1CCN(c2cc3c(c(N)c2F)c(=O)c(C(=O)O)cn3C2CC2)C1 (configuration not stated) | 0.1 (≈ 0.257 µM) |
| CNCC1CCN(c2cc3c(cc2F)c(=O)c(C(=O)O)cn3C2CC2)C1 (configuration not stated) | 0.2 (≈ 0.556 µM) |
